Assay results from patent US20210289787A1, “HERBICIDAL MIXTURES COMPRISING ISOXAFLUTOLE, TRIFLUDIMOXAZIN AND AN IMIDAZOLINONE HERBICIDE; AND THEIR USE IN SOYBEAN AND COTTON CULTURES” (BASF SE, priority 2018, published 2021).

Tested on: SETVI (Setaria viridis, Green foxtail)
Assay: post-emergence greenhouse experiment, herbicidal action (synergism by Colby)
Type: in vivo

SMILES: CS(=O)(=O)c1cc(C(F)(F)F)ccc1C(=O)c1cnoc1C1CC1 [Isoxaflutole, isoxaflutole]
- Herbicidal action against SETVI, Found (growth stage 13 (6 to 10 cm), scale 0 to 100, test period 20 days, isoxaflutole 25 g/ha alone): 20
- Herbicidal action against SETVI, Found (growth stage 13, scale 0 to 100, 20 days, isoxaflutole 12.5 g/ha alone): 20
